In the Kinase Knowledgebase extract (Sharma et al. 2016):

Target: CDK2 (UniProt P24941)
Experiment: Enzyme Assay

| Structure (SMILES) | IC50 |
| --- | --- |
| CCOC(=O)c1ccc(CNc2cncc(Cl)n2)o1 | 36 µM |
| NS(=O)(=O)CCNc1cncc(Cl)n1 | 60 µM |
| Clc1cncc(N(Cc2ccccc2)C2CCCCC2)n1 | 64 µM |
| CC(C)CNc1cncc(Cl)n1 | 105 µM |
| Clc1cncc(NC2CCCC2)n1 | 52 µM |
| Clc1cncc(-n2cccn2)n1 | 82 µM |
| Clc1cncc(-n2cnc3ccccc32)n1 | 35 µM |
| Clc1cncc(NCCNc2cncc(Cl)n2)n1 | 43 µM |
| Clc1cncc(N2CCN(c3ccccc3)CC2)n1 | 102 µM |
| Clc1cncc(NCc2cc(Oc3cncc(Cl)n3)no2)n1 | 40 µM |
| Clc1cncc(NCCc2c[nH]cn2)n1 | 73 µM |
| Clc1cncc(N2CCc3ccccc3C2)n1 | 98 µM |
| Cc1cc(Nc2cncc(Cl)n2)[nH]n1 | 49 µM |
| O=C(O)c1ccc(Nc2cncc(Cl)n2)nc1 | 68 µM |
| CC(C)(C)c1cc(N)n(-c2cncc(Cl)n2)n1 | 147 µM |
| c1cn(-c2cncc(-n3ccnc3)n2)cn1 | 105 µM |
| OCCN(c1cncc(Cl)n1)C1CCCCC1 | 54 µM |
| Clc1cncc(NC[C@H]2CCCN2)n1 | 5 µM |

Results, then the compound that gave them:

| IC50 | Structure (SMILES) |
| --- | --- |
| 14 µM | Cc1cc2cc(CNc3cncc(Cl)n3)ccc2[nH]1 |
| 7 µM | NS(=O)(=O)c1cccc(Nc2cncc(Cl)n2)c1 |
| 12 µM | CC(C)c1nccn1-c1cncc(Nc2ccccc2)n1 |
| 5.5 µM | c1ccc(Nc2cncc(-n3ccnc3)n2)cc1 |
| 8 µM | Clc1ccc(Nc2cncc(Cl)n2)nc1 |
| 10 µM | O=c1[nH]c2ccccc2n1-c1cncc(Cl)n1 |
| 3 µM | CSc1cncc(Nc2ccccc2)n1 |
| 12 µM | O[C@@H]1CCCC[C@H]1CN(c1cncc(Cl)n1)C1CCCCC1 |
| 15 µM | CC(=O)Nc1ccc(Nc2cncc(Cl)n2)cc1 |
| 32 µM | Clc1cncc(NCc2ccc(Cl)s2)n1 |
| 9 µM | Clc1cncc(Nc2ccccc2)n1 |
| 24 µM | Oc1ccc(Nc2cncc(Cl)n2)cc1 |
| 9 µM | NC(=O)c1sccc1Nc1cncc(Cl)n1 |
| 4 µM | NCCCN(c1cncc(Cl)n1)C1CCCCC1 |
| 17 µM | Clc1cncc(Nc2ccccn2)n1 |
| 16 µM | Fc1ccc(Nc2cncc(Cl)n2)cc1 |
| 17 µM | FC(F)(F)COc1cncc(Nc2ccccc2)n1 |
| 23 µM | Clc1cncc(NC(c2ccccc2)c2ccccc2)n1 |
| 6 µM | Oc1cccc(Nc2cncc(Cl)n2)c1 |
| 27 µM | Clc1cncc(Nc2cccnc2)n1 |
| 27 µM | Clc1cncc(NC2CCCCC2)n1 |
